Experimental data published in patent US5705504A, “Piperidine derivatives with PAF antagonist activity” (J. Uriach & Cia, S.A., priority 1994, dated 1998).

Tests used:
[1] = system: Platelet Aggregation Induced by PAF (platelet rich plasma); experiment: Inhibition of Platelet Aggregation Induced by PAF; format: cell-based, male New Zealand rabbits; conditions: rabbit platelet rich plasma, aggregation induced by C18-PAF (15 nM)
Procedure: Inhibition of Platelet Aggregation Induced by PAF.
Platelet rich plasma (PRP) was prepared by centrifuging the blood at 250 xg for 10 min. at 4° C. The PRP was diluted with platelet-poor plasma (PPP) obtained by further centrifuging at 3000 xg for 10 min. The platelet count was adjusted to 3×10^5cells/mm^3.

[2] = system: PAF-induced Hypotension; experiment: Inhibition of PAF-induced Hypotension in Normotensive Rats; format: in vivo, male Sprague-Dawley rats; conditions: anesthetized normotensive rats, i.v. 3 min. before PAF (0.5 μg/Kg), dose inhibiting hypotension by 50%; for ED50: Rattus norvegicus, iv, 0.05 h, read-out: ID50 (the source's name)
Procedure: Inhibition of PAF-induced Hypotension in Normotensive Rats.
Male Sprague-Dawley rats, weighing 180-220 g, were anesthetized with sodium pentobarbital (50 mg/Kg i.p.). Blood pressure was recorded from the left carotid artery using a Statham pressure transducer coupled to a Beckman R611 recorder. Right and left fernoral veins were catheterized to inject test compounds and PAF (0.5 μg/Kg). Test compounds were administered by intravenous injection (1 mL/Kg, dissolved in saline) 3 min. before PAF. Blood pressure was monitored and percent inhibition of PAF-induced hypotension with respect to controls was calculated.

| SMILES | IC50 ([1]; Oryctolagus cuniculus) | ED50 [2] | IC50 [1] | ID50 [2] |
| --- | --- | --- | --- | --- |
| Cc1nc2cnccc2n1CC1CCN(C(=O)OCC2(c3ccccc3)CC2)CC1 [Compound 70, 1-[[1-[[(1-Phenyl-1-cyclopropyl)methoxy]carbonyl]-4-piperidyl]methyl]-1H-2-methylimidazo[4,5-c]pyridine] | 0.034 µM | 0.014 mg/kg | – | – |
| Cc1nc2cnccc2n1CC1CCN(C(=O)C=C(c2ccccc2)c2cccc(N)c2)CC1 [Compound 30, cis and trans-1-[[1-[3-(3-Aminophenyl)-3-phenylpropenoyl]-4-piperidyl]methyl]-1H-2-methylimidazo[4,5-c]pyridine] | – | 0.015 mg/kg | – | – |
| CCOC(=O)[C@@H](NC(=O)N1CCC(Cn2c(C)nc3cnccc32)CC1)c1ccccc1 [Compound 39, (S)-1-[[1-[[N-(1-Ethoxycarbonyl-1-phenylmethyl)amino]carbonyl]-4-piperidyl]methyl]-1H-2-methylimidazo[4,5-c]pyridine] | 0.016 µM | – | – | – |
| Cc1nc2cnccc2n1CC1CCN(C(=O)NC2(c3ccccc3)CC2)CC1 [Compound 59, 1-[[1-[(1-Phenyl-1-cyclopropylamino)carbonyl]-4-piperidyl]methyl]-1H-2-methylimidazo[4,5-c]pyridine] | 0.017 µM | 0.021 mg/kg | – | – |
| CCOC[C@@H](NC(=O)N1CCC(Cn2c(C)nc3cnccc32)CC1)c1ccccc1 [Compound 60, (S)-1-[[1-[(2-Ethoxy-1-phenylethylamino)carbonyl]-4opiperidyl]methyl]-1H-2-methylimidazo[4,5-c]pyridine] | 0.017 µM | 0.019 mg/kg | – | – |
| Cc1nc2cnccc2n1CC1CCN(C(=O)CC(C)(C)c2ccc(N)cc2)CC1 [Compound 44, 1-[[1-[3-(4-Aminophenyl)-3-methylbutanoyl]-4-piperidyl]methyl]-1H-2-methylimidazo[4,5-c]pyridine] | 0.019 µM | – | – | – |
| Cc1nc2cnccc2n1CC1CCN(C(=O)/C=C(/c2ccccc2)c2ccc(N)cc2)CC1 [Compound 17a, cis-1-[[1-[3-(4-Aminophenyl)-3-phenylpropenoyl]-4-piperidyl]methyl]-1H-2-methylimidazo[4,5-c]pyridine] | – | – | 0.018 µM | 0.029 mg/kg |
| Cc1nc2cnccc2n1CC1CCN(C(=O)CC(C)c2ccc(N)cc2)CC1 (stereo not drawn) [Compound 23, 1-[[1-[3-(4-Aminophenyl)butanoyl]-4-piperidyl]methyl]-1H-2-methylimidazo[4,5-c]pyridine] | 0.011 µM | – | – | – |
| Cc1nc2cnccc2n1CC1CCN(C(=O)/C=C(\c2ccccc2)c2ccc(N)cc2)CC1 [Compound 17b, trans-1-[[1-[3-(4-Aminophenyl)-3-phenylpropenoyl]-4-piperidyl]methyl]-1H-2-methylimidazo[4,5-c]pyridine] | – | – | 0.005 µM | 0.01 to 0.025 mg/kg |
| Cc1nc2cnccc2n1CC1CCN(C(=O)CC(c2ccccc2)c2ccccc2)CC1 [Compound 1, 1-[[1-(3,3-Diphenylpropionyl)-4-piperidyl]methyl]-1H-2-methylimidazo[4,5-c]pyridine] | 0.0076 µM | 0.0086 mg/kg | – | – |
| Cc1nc2cnccc2n1CC1CCN(C(=O)C=C(c2ccccc2)c2ccc([N+](=O)[O-])cc2)CC1 [Compound 16, cis and trans-1-[[1-[3-(4-Nitrophenyl)-3-phenylpropenoyl]-4-piperidyl]methyl]-1H-2-methylimidazo[4,5-c]pyridine] | 0.0092 µM | – | – | – |

Now from value to compound, other results behind:

| IC50 ([1]; Oryctolagus cuniculus) | SMILES | ED50 [2] | IC50 [1] | ID50 [2] |
| --- | --- | --- | --- | --- |
| 0.013 µM | Cc1nc2cnccc2n1CC1CCN(C(=O)N[C@H](C)c2ccccc2)CC1 [Compound 50, (R)-1-[[1-[(1-Phenylethylamino)carbonyl]-4-piperidyl]methyl]-1H-2-methylimidazo[4,5-c]pyridine] | 0.017 mg/kg | – | – |
| 0.036 µM | Cc1nc2cnccc2n1CC1CCN(C(=O)CC(O)(c2ccccc2)C(F)(F)F)CC1 (stereo not drawn) [Compound 47] | 0.013 mg/kg | – | – |
| 0.012 µM | Cc1nc2cnccc2n1CC1CCN(C(=O)CC(C)c2ccccc2)CC1 (stereo not drawn) [Compound 40, 1-[[1-(3-Phenylbutanoyl)-4-piperidyl]methyl]-1H-2-methylimidazo[4,5-c]pyridine] | 0.033 mg/kg | – | – |
| 0.011 µM | CCCC(CC(=O)N1CCC(Cn2c(C)nc3cnccc32)CC1)c1ccccc1 (stereo not drawn) [Compound 32, 1-[[1-(3-Phenylhexanoyl)-4-piperidyl]methyl]-1H-2-methylimidazo[4,5-c]pyridine] | 0.0079 mg/kg | – | – |
| 0.0067 µM | Cc1nc2cnccc2n1CC1CCN(C(=O)CC(C)(C)c2ccccc2)CC1 [Compound 41, 1-[[1-(3-Methyl-3-phenylbutanoyl)-4-piperidyl]methyl]-1H-2-methylimidazo[4,5-c]pyridine] | 0.012 mg/kg | – | – |
| 0.0069 µM | Cc1nc2cnccc2n1CC1CCN(C(=O)CC(C)(O)c2ccccc2)CC1 (stereo not drawn) [Compound 21, 1-[[1-(3-Hydroxy-3-phenylbutanoyl)-4-piperidyl]methyl]-1H-2-methylimidazo[4,5-c]pyridine] | 0.043 mg/kg | – | – |
| 0.0062 µM | Cc1nc2cnccc2n1CC1CCN(S(=O)(=O)CC(C)(C)c2ccccc2)CC1 [Compound 61, 1-[[1-[(2-Methyl-2-phenylpropyl)sulfonyl]-4-piperidyl]methyl]-1H-2-methylimidazo[4,5-c]pyridine] | – | – | – |
